Experimental data reported in patent US20120208781A1, “AMINOGLYCOSIDE DOSING REGIMENS” (Achaogen, Inc., priority 2009, published 2012).
In brackets after ≈: the same amount, converted by molar mass. Several values for one entry are separate records, joined by “and”; a condition that tells them apart may be missing. Equal entries are not always repeated. Where two headings read alike, the source gives them in different places.

Assays:
[1] = Pharmacokinetics of Compound 1 after single bolus IV injection in beagle dogs (plasma); format: in vivo; details: for AUC(0-inf) / C0 / clearance / MRT inf / Vd: iv; for MRT inf: read-out: MRT0-∞
Protocol: Male CD-1 mice, Sprague Dawley rats, and beagle dogs were administered Compound 1 intravenously. Compound 1 was preformulated as a sterile isotonic solution of 10 mg/mL in PBS. Specifically, male CD-1 mice were administered a single bolus IV injection of the Compound at 10 mg/kg, via a bolus IV injection into the tail vein. Two blood samples per mouse were collected by retro-orbital puncture into tubes containing the anticoagulant K2EDTA prior to dosing and at 0.033, 0.083, 0.25, 0.5, 1 and 24 hours. Rats were administered Compound 1 at 10 mg/kg via a bolus IV injection into the tail vein. Twelve blood samples per rat were collected via a jugular vein cannula into tubes containing the anticoagulant K2EDTA at various timepoints (i.e., 0.033, 0.083, 0.25, 0.5, 1, 2, 4, 6, 8, 10, 12, and 24 hours). Male beagle dogs were administered Compound 1 at 10 mg/kg through a temporary percutaneous catheter placed in a peripheral vein. Whole blood samples (0.5 mL) were collected from each dog prior to dosing and at 0.033, 0.083, 0.25, 0.5, 1, 2, 4, 6, 8, and 24 hours via direct venipuncture of a jugular or cephalic vein into tubes containing the anticoagulant K2EDTA. A sparse sampling method was employed to conserve animals and provide the best data possible from fewer mice. Samples were centrifuged, and plasma was collected and transferred into a new tube and frozen at −80° C. until they were analyzed.
Blood, urine, and kidney samples collected over 24 hours were analyzed for Compound 1 levels using LC-MS/MS. Method performance was acceptable in the concentration ranges necessary to determine plasma levels. Compound 1 plasma concentrations were determined by comparing Compound 1 concentration in the sample to a standard curve derived from LC-MS/MS measurements of the analyte. The standard curve fit was linear with a 1/x^2 weighting.
Bioanalytical data analyses were carried out using Analyst software (version 1.4.1, Applied Biosystems, Toronto, ON, Canada). […] PK parameters were determined by noncompartmental analysis using WinNonLin. Plasma protein binding was determined using equilibrium dialysis. In vitro stability was determined using commercially available plasma, microsomes and hepatocytes.

P. aeruginosa (PSA) = experiment: MIC, CLSI broth microdilution, worldwide isolates: P. aeruginosa; format: cell-based
Text: (§1) In the first study, a total of 235 isolates were collected from medical centers worldwide and tested for susceptibility to Compound 1 and comparator agents by CLSI broth microdilution methods. […] Non-ENT GN pathogens included WT P. aeruginosa (PSA) and Acinetobacter spp. (ACB), and carbapenem (CARB)-R strains, including those with MBL and OXA enzymes, SA and coagulase-negative staphylococci (CoNS) included oxacillin-susceptible (MSSA/MS-CoNS) and —R (MRSA/MR-CoNS) strains.
(§2) Minimum inhibitory concentrations (MIC) were determined by reference Clinical and Laboratory Standards Institute (CLSI) broth microdilution methods per M7-A7 [2006]. Briefly, serial two-fold dilutions of Compound 1 and comparator AGs (together, “the test compounds”) were prepared at 2× concentration in appropriate diluent. The dilutions were mixed in 96-well assay plates with bacterial inoculum. Bacteria were suspended in sterile saline and added to each assay plate to obtain a final concentration of 5.5×10^5 CFU/mL. The plates were incubated at 35° C. for 20 hours in ambient air. […] After incubation, assay plates were read using a microtiter plate reader at 600 nm.

[2] = test system: coagulase-negative staphylococci (CoNS); experiment: MIC, CLSI broth microdilution, worldwide isolates: coagulase-negative staphylococci; format: cell-based
Text: as §1, §2

K. pneumoniae (KP) = experiment: MIC, broth microdilution, Brooklyn hospital isolates: K. pneumoniae; format: cell-based; details: Klebsiella pneumoniae; KP (n = 71)
Protocol: In another study, the activity of Compound 1 against a collection of contemporary Gram-negative bacteria was determined. Unique patient isolates of P. aeruginosa (PA), A. baumannii (AB), K. pneumoniae (KP), E. coli (EC), and Enterobacter spp. (EB) from prior surveys at 16 Brooklyn, N.Y. hospitals were selected based on resistance patterns. The majority of isolates were fingerprinted by automated ribotyping. MICs were performed by broth microdilution. PCR was used to identify aminoglycoside-modifying enzymes (AMEs) in AB and KP and the KPC gene in Enterobacteriaceae (EN). The expression of the efflux genes mexA, C, E and X in PA, and adeB in AB was assessed by real-time RT-PCR.

[3] = beagle dogs, 10 mg/kg single bolus IV, Mean ± SD, 10 mg/kg
[4] = male, beagle, dog, plasma, 10 mg/kg, beagle dogs, 10 mg/kg single bolus IV, Dog 601
[5] = male, beagle, dog, plasma, 10 mg/kg, beagle dogs, 10 mg/kg single bolus IV, Dog 602
[6] = male, beagle, dog, plasma, 10 mg/kg, beagle dogs, 10 mg/kg single bolus IV, Dog 603
[7] = male, beagle, dog, plasma, 10 mg/kg, beagle dogs, 10 mg/kg single bolus IV, Mean ± SD
[8] = Pseudomonas aeruginosa, PSA isolates

CN[C@@H]1[C@@H](O)[C@@H](O[C@@H]2[C@@H](O)[C@H](O[C@H]3OC(CNCCO)=CC[C@H]3N)[C@@H](N)C[C@H]2NC(=O)[C@@H](O)CCN)OC[C@]1(C)O [Compound 1, 6′-(2-Hydroxy-ethyl)-1-(4-amino-2(S)-hydroxy-butyryl)-sisomicin]
HL Lambda Z ([1]; beagle dogs, 10 mg/kg single bolus IV, Dog 601): 1.18 h
HL Lambda Z ([1]; beagle dogs, 10 mg/kg single bolus IV, Dog 602): 1.24 h
HL Lambda Z ([1]; beagle dogs, 10 mg/kg single bolus IV, Dog 603): 1.23 h
AUC0-∞ [1, 3]: 82600 ± 11500 ng·h/mL
HL Lambda Z [1, 3]: 1.22 h and 1.22 ± 0.03 h
half-life ([1]; male, beagle, dog, plasma, intravenous, 10 mg/kg, dogs, read-out: t½ (renal clearance) (converted)): ~1 h
AUC(0-inf) [1, 4]: 69400 ng·h/mL
C0 [1, 4]: 134 µg/mL
clearance [1, 4]: 2.4 mL/min/kg
MRT inf [1, 4]: 1.26 h
Vd ([1]; male, beagle, dog, plasma, 10 mg/kg, beagle dogs, 10 mg/kg single bolus IV, Dog 601, read-out: Vss): 0.181 L
AUC(0-inf) [1, 5]: 88700 ng·h/mL
C0 [1, 5]: 119 µg/mL
clearance [1, 5]: 1.88 mL/min/kg
MRT inf [1, 5]: 1.32 h
Vd ([1]; male, beagle, dog, plasma, 10 mg/kg, beagle dogs, 10 mg/kg single bolus IV, Dog 602, read-out: Vss): 0.149 L
AUC(0-inf) [1, 6]: 89700 ng·h/mL
C0 [1, 6]: 106 µg/mL
clearance [1, 6]: 1.85 mL/min/kg
MRT inf [1, 6]: 1.45 h
Vd ([1]; male, beagle, dog, plasma, 10 mg/kg, beagle dogs, 10 mg/kg single bolus IV, Dog 603, read-out: Vss): 0.162 L
AUC(0-inf) [1, 7]: 83000 ng·h/mL
C0 [1, 7]: 120 µg/mL
clearance [1, 7]: 2.05 mL/min/kg
MRT inf [1, 7]: 1.34 h
Vd ([1]; male, beagle, dog, plasma, 10 mg/kg, beagle dogs, 10 mg/kg single bolus IV, Mean ± SD, read-out: Vss): 0.164 ± 0.016 L
Vd ([1]; male, beagle, dog, plasma, 10 mg/kg, beagle dogs, 10 mg/kg single bolus IV, mean, read-out: volume of distribution at steady state): 0.164 L/kg
Cumulative % inhibited at Cmpd. MIC 1 (P. aeruginosa (PSA); PSA (30)): 3.3%
Cumulative % inhibited at Cmpd. MIC 2 (P. aeruginosa (PSA); PSA (30)): 3.3%
Cumulative % inhibited at Cmpd. MIC 4 (P. aeruginosa (PSA); PSA (30)): 30.0%
Cumulative % inhibited at Cmpd. MIC 8 (P. aeruginosa (PSA); PSA (30)): 50.0%
Cumulative % inhibited at Cmpd. MIC 16 (P. aeruginosa (PSA); PSA (30)): 76.7%
Cumulative % inhibited at Cmpd. MIC 32 (P. aeruginosa (PSA); PSA (30)): 96.7%
Cumulative % inhibited at Cmpd. MIC 64 (P. aeruginosa (PSA); PSA (30)): 96.7%
Cumulative % inhibited at Cmpd. MIC >64 (P. aeruginosa (PSA); PSA (30)): 100.0%
Cumulative % inhibited at Cmpd. MIC ≦0.5 (P. aeruginosa (PSA); PSA (30)): 0.0%
Cumulative % inhibited at Cmpd. MIC 1 (P. aeruginosa (PSA); PSA, CARB-R (20)): 0.0%
Cumulative % inhibited at Cmpd. MIC 2 (P. aeruginosa (PSA); PSA, CARB-R (20)): 0.0%
Cumulative % inhibited at Cmpd. MIC 4 (P. aeruginosa (PSA); PSA, CARB-R (20)): 10.0%
Cumulative % inhibited at Cmpd. MIC 8 (P. aeruginosa (PSA); PSA, CARB-R (20)): 25.0%
Cumulative % inhibited at Cmpd. MIC 16 (P. aeruginosa (PSA); PSA, CARB-R (20)): 65.0%
Cumulative % inhibited at Cmpd. MIC 32 (P. aeruginosa (PSA); PSA, CARB-R (20)): 95.0%
Cumulative % inhibited at Cmpd. MIC 64 (P. aeruginosa (PSA); PSA, CARB-R (20)): 95.0%
Cumulative % inhibited at Cmpd. MIC >64 (P. aeruginosa (PSA); PSA, CARB-R (20)): 100.0%
Cumulative % inhibited at Cmpd. MIC ≦0.5 (P. aeruginosa (PSA); PSA, CARB-R (20)): 0.0%
Cumulative % inhibited at Cmpd. MIC 1 (P. aeruginosa (PSA); PSA, WT (10)): 10.0%
Cumulative % inhibited at Cmpd. MIC 2 (P. aeruginosa (PSA); PSA, WT (10)): 10.0%
Cumulative % inhibited at Cmpd. MIC 4 (P. aeruginosa (PSA); PSA, WT (10)): 70.0%
Cumulative % inhibited at Cmpd. MIC 8 (P. aeruginosa (PSA); PSA, WT (10)): 100.0%
Cumulative % inhibited at Cmpd. MIC ≦0.5 (P. aeruginosa (PSA); PSA, WT (10)): 0.0%
MIC50 (P. aeruginosa (PSA); [8]): 8 µg/mL (≈ 13.5 µM)
MIC90 (P. aeruginosa (PSA); [8]): 32 µg/mL (≈ 54 µM)
MIC50 ([2]; CONS isolates): ≤ 0.25 µg/mL
MIC90 ([2]; CONS isolates): ≤ 0.25 µg/mL
Cumulative % inhibited at Cmpd. MIC ≦0.5 ([2]; CoNS (20)): 100.0%
MIC50 (K. pneumoniae (KP)): 0.5 µg/mL (≈ 0.844 µM)
MIC90 (K. pneumoniae (KP)): 1 µg/mL (≈ 1.69 µM)
